# Source: US7951827B2, “Synthesis and antiprotozoal activity of dicationic 3,5-diphenylisoxazoles” (The University of North Carolina at Chapel Hill, priority 2005, dated 2011)
# Counter-ions that a name gives are not always drawn. Like-named read-outs stand apart in the source and are kept apart here.
# Tests used:
# [1] = system: Trypanosoma brucei brucei; assay: In vitro antiprotozoal activity against Trypanosoma brucei brucei; type: cell-based; settings: Trypanosoma brucei
# Method: (§1) In vitro antiprotozoal activities, see Ismail, M. A., et al., J. Med. Chem. 46, 4761-4769 (2003), and cytotoxicity were measured following established protocols, see Balz, T., et al., EMBO J., 4, 1273-1277 (1985); Räz. B., et al., Acta Trop., 68:139-147 (1997); and Sperandeo, N. R. et al., Chem. Biochem., 4, 69-73 (2003). […] Other positive controls employed were melarsoprol (against T. brucei), chloroquine, and artemisinin (against P. falciparum), and podophyllotoxin (against VERO cells).
# [2] = system: Plasmodium falciparum; assay: In vitro antiprotozoal activity against Plasmodium falciparum; type: cell-based; settings: for IC50: Plasmodium falciparum
# Method: as §1
# [3] = Cytotoxicity to VERO cells; type: cell-based, African green monkey (Cercopithecus Aethiops); settings: African green monkey (Cercopithecus aethiops), IC50 (μM) Cytotoxicity VERO cells
# Method: as §1
# [4] = system: VERO cells; assay: Cytotoxicity to VERO cells; type: cell-based, African green monkey (Cercopithecus Aethiops); settings: for IC50: Chlorocebus sabaeus, Vero, read-out: IC50 value against VERO cells
# Method: as §1
# [5] = Table 1, read-out: IC50 (μM) Trypanosoma brucei brucei
# [6] = Table 1, read-out: IC50 (μM) Plasmodium falciparum
# [7] = read-out: antiplasmodial IC50 values (P. falciparum)
# [8] = read-out: IC50 values against T. brucei brucei
SMILES,"IC50 [1, 5] [µM]","IC50 [2, 6] [µM]","IC50 [2, 7] [µM]",melting point,"IC50 [1, 8] [µM]",selectivities against P. falciparum over T. brucei brucei [2] [fold],IC50 [3] [µM],toxicity (VERO cells) in words [4],IC50 [4] [nM]
"CC(C)NC(=N)c1ccc(-c2cc(-c3ccc(C(=N)NC(C)C)cc3)on2)cc1.Cl.Cl [Compound 4, 3,5-Bis[4-(N-isopropyl)amidinophenyl]isoxazole dihydrochloride]",0.196,0.0066,< 0.008,–,–,30,176,very nontoxic,> 100000
"CC(C)NC(=N)c1ccc(-c2cc(-c3cccc(C(=N)NC(C)C)c3)no2)cc1.Cl.Cl [Compound 14, 3-[3-(N-Isopropyl)amidinophenyl]-5-[4-(N-isopropyl)amidinophenyl]-isoxazole dihydrochloride]",0.488,0.0106,0.008 to 0.03,> 350 °C,–,45,187,very nontoxic,> 100000
"Cl.Cl.N=C(N)c1ccc(-c2cc(-c3cc(C(=N)N)ccc3[N+](=O)[O-])no2)cc1 [Compound 19, 3-(5-Amidino-2-nitrophenyl)-5-(4-amidinophenyl)isoxazole dihydrochloride]",0.0512,0.0021,–,238 to 240 °C,–,–,5.07,quite toxic,–
"CC(C)NC(=N)c1ccc(-c2cc(-c3cccc(C(=N)NC(C)C)c3)on2)cc1.Cl.Cl [Compound 23, 3-[4-(N-Isopropyl)amidinophenyl]-5-[3-(N-isopropyl)amidinophenyl]-isoxazole dihydrochloride]",0.316,0.0347,–,340 to 343 °C (dec.),–,–,186,very nontoxic,> 100000
"Cl.Cl.N=C(N)c1cccc(-c2cc(-c3ccc(C(=N)N)cc3[N+](=O)[O-])no2)c1 [Compound 27, 3-(4-Amidino-2-nitrophenyl)-5-(3-amidinophenyl)isoxazole dihydrochloride]",0.0194,0.0304,–,236 °C (dec.),–,–,206,low toxicity,> 100000
"COc1ccc(C(=N)N)cc1-c1cc(-c2ccc(C(=N)N)cc2[N+](=O)[O-])no1.Cl.Cl [Compound 30, 5-(5-Amidino-2-methoxyphenyl)-3-(4-amidino-2-nitrophenyl)isoxazole dihydrochloride]",0.0342,0.0195,0.008 to 0.03,260 °C (dec.),–,–,116,–,> 100000
"Cl.Cl.N=C(N)c1cccc(-c2cc(-c3cccc(C(=N)N)c3)on2)c1 [Compound 32, 3,5-Bis(3-amidinophenyl)isoxazole dihydrochloride]",0.029,0.0092,0.008 to 0.03,365 to 367 °C,0.029,–,153,low toxicity,> 100000
"CC(C)NC(=N)c1cccc(-c2cc(-c3cccc(C(=N)NC(C)C)c3)on2)c1.Cl.Cl [Compound 33, 3,5-Bis[3-(N-isopropyl)amidinophenyl]isoxazole dihydrochloride]",4.98,0.0431,–,260 °C (dec.),–,–,180,very nontoxic,> 100000
"Cl.Cl.N=C(N)c1cccc(-c2cc(-c3cc(C(=N)N)ccc3Cl)on2)c1 [Compound 36, 5-(5-Amidino-2-chlorophenyl)-3-(3-amidinophenyl)isoxazole dihydrochloride]",0.0251,0.0163,0.008 to 0.03,347 °C (dec.),–,–,109,low toxicity,> 100000
"Cl.Cl.N=C(N)c1cccc(-c2cc(-c3cc(C(=N)N)ccc3[N+](=O)[O-])no2)c1 [Compound 38, 3-(5-Amidino-2-nitrophenyl)-5-(3-amidinophenyl)isoxazole dihydrochloride]",0.085,0.104,–,220 °C (dec.),–,–,177,low toxicity,> 100000

# Molecules with a lower IC50 [1, 5], results first:
"IC50 [1, 5] [µM]","IC50 [2, 6] [µM]","IC50 [2, 7] [µM]",melting point,"IC50 [1, 8] [µM]",SMILES,selectivities against P. falciparum over T. brucei brucei [2] [fold],IC50 [3] [µM],toxicity (VERO cells) in words [4],IC50 [4] [nM]
0.0106,0.006,< 0.008,–,–,"COc1cc(C(=N)N)ccc1-c1cc(-c2ccc(C(=N)N)cc2)no1 [Compound 8, 5-(4-Amidino-2-methoxyphenyl)-3-(4-amidinophenyl)isoxazole dihydrochloride]",–,122,–,> 100000
0.0164,0.0663,–,335 to 337 °C (dec.),–,"COc1cc(C(=N)N)ccc1-c1cc(-c2ccc(C(=N)N)cc2)on1.Cl.Cl [Compound 11, 3-(4-Amidino-2-methoxyphenyl)-5-(4-amidinophenyl)isoxazole dihydrochloride]",–,92.6,–,> 100000
0.013,0.0061,< 0.008,–,–,"COc1cc(C(=N)N)ccc1-c1cc(-c2ccc(C(=N)N)cc2OC)on1 [Compound 12, 3,5-Bis(4-amidino-2-methoxyphenyl)isoxazole dihydrochloride]",–,84.8,–,> 100000
0.0065,0.0035,–,241 to 246 °C,0.0065,"COc1cc(C(=N)N)ccc1-c1cc(-c2cccc(C(=N)N)c2)no1.Cl.Cl [Compound 18, 5-(4-Amidino-2-methoxyphenyl)-3-(3-amidinophenyl)isoxazole dihydrochloride]",–,177,–,> 100000
0.0118,0.0026,–,272 to 275 °C,–,"COc1ccc(C(=N)N)cc1-c1cc(-c2ccc(C(=N)N)cc2)on1.Cl.Cl [Compound 21, 3-(5-Amidino-2-methoxyphenyl)-5-(4-amidinophenyl)isoxazole dihydrochloride]",–,213,–,> 100000
0.0059,0.0089,0.008 to 0.03,288 °C (dec.),0.0035 to 0.009,"COc1cc(C(=N)N)ccc1-c1cc(-c2cccc(C(=N)N)c2)on1.Cl.Cl [Compound 29, 3-(4-Amidino-2-methoxyphenyl)-5-(3-amidinophenyl)isoxazole dihydrochloride]",–,136,–,> 100000
0.0057,0.0297,0.008 to 0.03,330 °C (dec.),0.0035 to 0.009,"COc1cc(C(=N)N)ccc1-c1cc(-c2cc(C(=N)N)ccc2OC)on1.Cl.Cl [Compound 31, 3-(4-Amidino-2-methoxyphenyl)-5-(5-amidino-2-methoxyphenyl)isoxazole dihydrochloride]",–,191,–,> 100000
0.0074,0.0192,0.008 to 0.03,240 °C (dec.),0.0035 to 0.009,"COc1ccc(C(=N)N)cc1-c1cc(-c2cccc(C(=N)N)c2)no1.Cl.Cl [Compound 37, 5-(5-Amidino-2-methoxyphenyl)-3-(3-amidinophenyl)isoxazole dihydrochloride]",–,124,–,> 100000
